Data taken from the supplement of paper PMC10883282.

How the values were obtained:
Experiment in all cases: relative viability vs DMSO control (72 h) (fraction); higher = more viable cells
[1] = test system: SW872
How it was run: (§1)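 Plates held 72 h at 37 °C and 5% CO2 contained sarcoma cell lines seeded in 384-well format to reach 80–90% confluence, plus 2.5 µl of serially diluted compound added after 24 h. Source plate concentrations ran from 10 mM to 0.0002 mM, with 0.1% DMSO as vehicle and a 5 µM positive control. Percent growth from ATPLite readings, averaged over up to triplicate wells, gave relative viability. Values were rescaled with 1 as full and 0 as none.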

[2] = test system: A204
How it was run: as §1

[3] = test system: SYO-1
How it was run: as §1

[4] = test system: SK-ES-1
How it was run: as §1

[5] = test system: SW982
How it was run: as §1

[6] = test system: HS729
How it was run: as §1

[7] = test system: KHOS-240S
How it was run: as §1

[8] = test system: SW1353
How it was run: as §1

[9] = test system: G401
How it was run: as §1

[10] = test system: SW684
How it was run: as §1

[11] = test system: MES-SA
How it was run: as §1

[12] = test system: SK-LMS-1
How it was run: as §1

CC(=O)c1c(C)c2cnc(Nc3ccc(N4CCNCC4)cn3)nc2n(C2CCCC2)c1=O [Palbociclib]
Conditions	relative viability
[1], 0.00017 µM	1.11
[1], 0.00051 µM	1.1
[1], 0.00152 µM	1.07
[1], 0.00457 µM	1.09
[1], 0.01372 µM	1.07
[1], 0.04115 µM	1.03
[1], 0.1235 µM	0.968
[1], 0.3704 µM	0.884
[1], 1.111 µM	0.83
[1], 3.333 µM	0.78
[1], 10 µM	0.726
[2], 0.00017 µM	1.05
[2], 0.00051 µM	1.07
[2], 0.00152 µM	1.07
[2], 0.00457 µM	1.08
[2], 0.01372 µM	1.03
[2], 0.04115 µM	0.987
[2], 0.1235 µM	0.808
[2], 0.3704 µM	0.777
[2], 1.111 µM	0.649
[2], 3.333 µM	0.556
[2], 10 µM	0.39
[3], 0.00017 µM	1.01
[3], 0.00051 µM	1
[3], 0.00152 µM	1.01
[3], 0.00457 µM	0.9555
[3], 0.01372 µM	0.903
[3], 0.04115 µM	0.8
[3], 0.1235 µM	0.702
[3], 0.3704 µM	0.649
[3], 1.111 µM	0.621
[3], 3.333 µM	0.523
[3], 10 µM	-0.000667
[4], 0.00017 µM	1
[4], 0.00051 µM	1.07
[4], 0.00152 µM	1.03
[4], 0.00457 µM	1.02
[4], 0.01372 µM	0.9868
[4], 0.04115 µM	0.865
[4], 0.1235 µM	0.674
[4], 0.3704 µM	0.512
[4], 1.111 µM	0.467
[4], 3.333 µM	0.407
[4], 10 µM	0.241
[5], 0.00017 µM	1.03
[5], 0.00051 µM	1.08
[5], 0.00152 µM	1.06
[5], 0.00457 µM	1.05
[5], 0.01372 µM	1.01
[5], 0.04115 µM	0.936
[5], 0.1235 µM	0.845
[5], 0.3704 µM	0.737
[5], 1.111 µM	0.6424
[5], 3.333 µM	0.487
[5], 10 µM	0.222
[6], 0.00017 µM	1.05
[6], 0.00051 µM	1.02
[6], 0.00152 µM	1.06
[6], 0.00457 µM	1.01
[6], 0.01372 µM	1.05
[6], 0.04115 µM	0.965
[6], 0.1235 µM	0.987
[6], 0.3704 µM	0.984
[6], 1.111 µM	0.844
[6], 3.333 µM	0.849
[6], 10 µM	0.933
[7], 0.00017 µM	1.07
[7], 0.00051 µM	1.07
[7], 0.00152 µM	1.08
[7], 0.00457 µM	1.07
[7], 0.01372 µM	1.07
[7], 0.04115 µM	1.01
[7], 0.1235 µM	0.945
[7], 0.3704 µM	0.843
[7], 1.111 µM	0.734
[7], 3.333 µM	0.681
[7], 10 µM	0.607
[8], 0.00017 µM	1.05
[8], 0.00051 µM	1.06
[8], 0.00152 µM	1.05
[8], 0.00457 µM	1.04
[8], 0.01372 µM	1.01
[8], 0.04115 µM	0.955
[8], 0.1235 µM	0.9442
[8], 0.3704 µM	0.9
[8], 1.111 µM	0.859
[8], 3.333 µM	0.87
[8], 10 µM	0.425
[9], 0.00017 µM	1.04
[9], 0.00051 µM	1.03
[9], 0.00152 µM	1.016
[9], 0.00457 µM	0.989
[9], 0.01372 µM	0.962
[9], 0.04115 µM	0.938
[9], 0.1235 µM	0.882
[9], 0.3704 µM	0.856
[9], 1.111 µM	0.833
[9], 3.333 µM	0.742
[9], 10 µM	0.293
[10], 0.00017 µM	1.19
[10], 0.00051 µM	1.2
[10], 0.00152 µM	1.24
[10], 0.00457 µM	1.241
[10], 0.01372 µM	1.28
[10], 0.04115 µM	1.21
[10], 0.1235 µM	1.18
[10], 0.3704 µM	1.11
[10], 1.111 µM	1.05
[10], 3.333 µM	0.933
[10], 10 µM	0.7226
[11], 0.00017 µM	0.965
[11], 0.00051 µM	0.977
[11], 0.00152 µM	0.975
[11], 0.00457 µM	0.936
[11], 0.01372 µM	0.9398
[11], 0.04115 µM	0.852
[11], 0.1235 µM	0.782
[11], 0.3704 µM	0.678
[11], 1.111 µM	0.641
[11], 3.333 µM	0.521
[11], 10 µM	0.366
[12], 0.00017 µM	1.05
[12], 0.00051 µM	1.04
[12], 0.00152 µM	1.08
[12], 0.00457 µM	1.05
[12], 0.01372 µM	1.06
[12], 0.04115 µM	0.97
[12], 0.1235 µM	0.998
[12], 0.3704 µM	0.961
[12], 1.111 µM	1
[12], 3.333 µM	1.06
[12], 10 µM	0.798
